Assay results from US9695133B2, “Quinazolinone-based oncogenic-RAS-selective lethal compounds and their use” (THE TRUSTEES OF COLUMBIA UNIVERSITY IN THE CITY OF NEW YORK, priority 2012, dated 2017).

System: HT-1080 cells
Experiment: Metabolite profiling (LC-MS/MS) upon erastin treatment
Assay type: cell-based, human
Conditions: 5 μg/mL erastin 5 h
Description: 2 million HT-1080 cells were seeded in 10 cm culture dishes. […] 4 mL of cold 80% methanol was added to the cell monolayer to extract polar metabolites using a cell scraper. The cell lysate/methanol mixture was transferred to a 15 mL tube and centrifuged at 2,000×g at 4° C. for 10 minutes to pellet debris and proteins. The supernatant was transferred to a new tube and stored at −80° C. for liquid chromatography-mass spectrometry/mass spectrometry (LC-MS/MS) analysis. For lipid extract preparation, 3 mL of cold 100% isopropanol was added to the cell monolayer to scrape out cells. The resulting cell lysate/isopropanol mixture was transferred to a new 15 mL tube and centrifuged at 2,000×g at 4° C. for 10 minutes. The cleared supernatant was transferred to a new tube and stored at −20° C. for LC-MS/MS analysis.
The metabolite extract was subjected to LC-MS/MS analysis to determine the quantity of each metabolite in each sample.

With `CCOc1ccccc1-n1c(C(C)N2CCN(C(=O)COc3ccc(Cl)cc3)CC2)nc2ccccc2c1=O` (stereo not drawn) [erastin] the “G6P Erastin/DMSO” value was 1.134, the “G6P log2 (Erastin/DMSO)” value was 0.181 and the “GABA Erastin/DMSO” value was 1.173. For the same molecule, the “GABA log2 (Erastin/DMSO)” value was 0.2297, the “GDP Erastin/DMSO” value was 0.8497 and the “GDP log2 (Erastin/DMSO)” value was −0.235. For the same molecule, the “GMP Erastin/DMSO” value was 1.066, the “GMP log2 (Erastin/DMSO)” value was 0.09204 and the “IMP Erastin/DMSO” value was 1.065. For the same molecule, the “IMP log2 (Erastin/DMSO)” value was 0.09035, the “N-carbomoyl-beta-alanine Erastin/DMSO” value was 0.7958 and the “N-carbomoyl-beta-alanine log2 (Erastin/DMSO)” value was −0.3296. The “NAD Erastin/DMSO” value was 0.9157, the “NAD log2 (Erastin/DMSO)” value was −0.127 and the “NADH Erastin/DMSO” value was 0.8051. For the same molecule, the “NADH log2 (Erastin/DMSO)” value was −0.3128, the “NMMA Erastin/DMSO” value was 0.9886 and the “NMMA log2 (Erastin/DMSO)” value was −0.01661. The “OH-phenylpyruvate Erastin/DMSO” value was 0.8442, the “OH-phenylpyruvate log2 (Erastin/DMSO)” value was −0.2443 and the “PEP Erastin/DMSO” value was 1.147. The “PEP log2 (Erastin/DMSO)” value was 0.1975, the “SDMA Erastin/DMSO” value was 0.9505 and the “SDMA log2 (Erastin/DMSO)” value was −0.07329. For the same molecule, the “UDP Erastin/DMSO” value was 1.002, the “UDP log2 (Erastin/DMSO)” value was 0.002894 and the “UDP-galactose/UDP-glucose Erastin/DMSO” value was 0.9003. For the same molecule, the “UDP-galactose/UDP-glucose log2 (Erastin/DMSO)” value was −0.1516, the “UDP-glucuronate Erastin/DMSO” value was 0.9339 and the “UDP-glucuronate log2 (Erastin/DMSO)” value was −0.09865. The “UMP Erastin/DMSO” value was 1.049, the “UMP log2 (Erastin/DMSO)” value was 0.06891 and the “XMP Erastin/DMSO” value was 0.8599. The “XMP log2 (Erastin/DMSO)” value was −0.2178, the “acetylcholine Erastin/DMSO” value was 0.8307 and the “acetylcholine log2 (Erastin/DMSO)” value was −0.2676. The “aconitate Erastin/DMSO” value was 1.036, the “aconitate log2 (Erastin/DMSO)” value was 0.05158 and the “adenine Erastin/DMSO” value was 1.254. For the same molecule, the “adenine log2 (Erastin/DMSO)” value was 0.3261, the “adenosine Erastin/DMSO” value was 1.376 and the “adenosine log2 (Erastin/DMSO)” value was 0.4605. For the same molecule, the “adipate Erastin/DMSO” value was 1.091, the “adipate log2 (Erastin/DMSO)” value was 0.1256 and the “alanine Erastin/DMSO” value was 1.061. The “alanine log2 (Erastin/DMSO)” value was 0.0857, the “allantoin Erastin/DMSO” value was 0.9512 and the “allantoin log2 (Erastin/DMSO)” value was −0.07213. The “alpha-glycerophosphate Erastin/DMSO” value was 0.7556, the “alpha-glycerophosphate log2 (Erastin/DMSO)” value was −0.4043 and the “alpha-glycerophosphocholine Erastin/DMSO” value was 0.2194. For the same molecule, the “alpha-glycerophosphocholine log2 (Erastin/DMSO)” value was −2.188, the “alpha-ketoglutarate Erastin/DMSO” value was 0.9867 and the “alpha-ketoglutarate log2 (Erastin/DMSO)” value was −0.01926. The “arginine Erastin/DMSO” value was 0.9866, the “arginine log2 (Erastin/DMSO)” value was −0.01943 and the “ascorbate Erastin/DMSO” value was 1.196. The “ascorbate log2 (Erastin/DMSO)” value was 0.2586, the “asparagine Erastin/DMSO” value was 1.069 and the “asparagine log2 (Erastin/DMSO)” value was 0.09662. For the same molecule, the “aspartate Erastin/DMSO” value was 1.017, the “aspartate log2 (Erastin/DMSO)” value was 0.02452 and the “betaine Erastin/DMSO” value was 0.9528. For the same molecule, the “betaine log2 (Erastin/DMSO)” value was −0.06976, the “cAMP Erastin/DMSO” value was 1.266 and the “cAMP log2 (Erastin/DMSO)” value was 0.3404. For the same molecule, the “carnitine Erastin/DMSO” value was 0.802, the “carnitine log2 (Erastin/DMSO)” value was −0.3183 and the “carnosine Erastin/DMSO” value was 0.9657. For the same molecule, the “carnosine log2 (Erastin/DMSO)” value was −0.0503, the “choline Erastin/DMSO” value was 0.8139 and the “choline log2 (Erastin/DMSO)” value was −0.2971. The “cis/trans hydroxyproline Erastin/DMSO” value was 1.099, the “cis/trans hydroxyproline log2 (Erastin/DMSO)” value was 0.1366 and the “citrate Erastin/DMSO” value was 0.974. For the same molecule, the “citrate log2 (Erastin/DMSO)” value was −0.03805, the “citrulline Erastin/DMSO” value was 1.036 and the “citrulline log2 (Erastin/DMSO)” value was 0.05057. The “cotinine Erastin/DMSO” value was 0.9037, the “cotinine log2 (Erastin/DMSO)” value was −0.146 and the “creatine Erastin/DMSO” value was 0.8675. For the same molecule, the “creatine log2 (Erastin/DMSO)” value was −0.205, the “creatinine Erastin/DMSO” value was 0.972 and the “creatinine log2 (Erastin/DMSO)” value was −0.04091. For the same molecule, the “cystamine Erastin/DMSO” value was 1.09, the “cystamine log2 (Erastin/DMSO)” value was 0.1248 and the “cystathionine Erastin/DMSO” value was 1.263. For the same molecule, the “cystathionine log2 (Erastin/DMSO)” value was 0.3368, the “cytidine Erastin/DMSO” value was 6.079 and the “cytidine log2 (Erastin/DMSO)” value was 2.604. For the same molecule, the “cytosine Erastin/DMSO” value was 0.8863, the “cytosine log2 (Erastin/DMSO)” value was −0.1741 and the “dCMP Erastin/DMSO” value was 0.9184. The “dCMP log2 (Erastin/DMSO)” value was −0.1228, the “dGMP Erastin/DMSO” value was 1.052 and the “dGMP log2 (Erastin/DMSO)” value was 0.07275. For the same molecule, the “dTMP Erastin/DMSO” value was 0.6985, the “dTMP log2 (Erastin/DMSO)” value was −0.5178 and the “dUMP Erastin/DMSO” value was 0.6787. For the same molecule, the “dUMP log2 (Erastin/DMSO)” value was −0.5592, the “dimethylglycine Erastin/DMSO” value was 0.9338 and the “dimethylglycine log2 (Erastin/DMSO)” value was −0.09885. The “folate Erastin/DMSO” value was 1.032, the “folate log2 (Erastin/DMSO)” value was 0.04552 and the “fumarate Erastin/DMSO” value was 0.9822. For the same molecule, the “fumarate log2 (Erastin/DMSO)” value was −0.02598, the “glucose Erastin/DMSO” value was 0.9717 and the “glucose log2 (Erastin/DMSO)” value was −0.04147. For the same molecule, the “glucose/fructose/galactose Erastin/DMSO” value was 1.011, the “glucose/fructose/galactose log2 (Erastin/DMSO)” value was 0.01526 and the “glucuronate Erastin/DMSO” value was 0.61. The “glucuronate log2 (Erastin/DMSO)” value was −0.7132, the “glutamate Erastin/DMSO” value was 1.019 and the “glutamate log2 (Erastin/DMSO)” value was 0.02762. The “glutamine Erastin/DMSO” value was 1.015, the “glutamine log2 (Erastin/DMSO)” value was 0.02096 and the “glutathione oxidized Erastin/DMSO” value was 0.3235. The “glutathione oxidized log2 (Erastin/DMSO)” value was −1.628, the “glutathione reduced Erastin/DMSO” value was 0.007019 and the “glutathione reduced log2 (Erastin/DMSO)” value was −7.154. For the same molecule, the “glyceraldehyde-3-phosphate Erastin/DMSO” value was 1.192, the “glyceraldehyde-3-phosphate log2 (Erastin/DMSO)” value was 0.2529 and the “glycerol Erastin/DMSO” value was 1.058. The “glycerol log2 (Erastin/DMSO)” value was 0.08176, the “glycine Erastin/DMSO” value was 0.9723 and the “glycine log2 (Erastin/DMSO)” value was −0.04055. The “glycochenodeoxycholate Erastin/DMSO” value was 1.067, the “glycochenodeoxycholate log2 (Erastin/DMSO)” value was 0.09335 and the “glycocholate Erastin/DMSO” value was 0.9975. For the same molecule, the “glycocholate log2 (Erastin/DMSO)” value was −0.003654, the “glycodeoxycholate Erastin/DMSO” value was 1.054 and the “glycodeoxycholate log2 (Erastin/DMSO)” value was 0.07552.
